Results as given in PubChem BioAssay (NCI).
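Grown in 96-well plates, cells were treated for 48 hours with each compound at five concentrations. Insufficient inhibition: endpoint recorded as highest concentration tested. At the TGI there is no net growth.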 *1 amine or outer side, *2 acyl side, *3 side chain or, on linkers, in order; H or OH if unused. Where a SMILES comes first, the peptide text is derived from it. [ ]: non-standard residue; d: D form. ξ: configuration not given here. X22 = O=C(C(CC(O)CO)O[*:1])[*:2]; Ile(3ξ) = CCC(C)[C@H](N)C(=O)O; NMeV = CN[C@H](C(=O)O)C(C)C; NMeA = CN[C@@H](C)C(=O)O; βAla = NCCC(=O)O

Legend:
Assay in all cases: NCI anticancer screen, dose series, 48 h
[1] = system: MDA-MB-435
[2] = system: T-47D breast
[3] = system: SK-MEL-5 melanoma
[4] = system: NCI-H23 lung
[5] = system: UO-31 renal
[6] = system: MOLT-4 leukemia
[7] = system: PC-3 prostate
[8] = system: U251 CNS
[9] = system: M14 melanoma
[10] = system: MDA-MB-231 breast
[11] = system: HS 578T breast
[12] = system: SNB-19 CNS
[13] = system: A549 NSCLC
[14] = system: NCI/ADR-RES ovarian
[15] = system: OVCAR-5 ovarian
[16] = system: HT29 colon
[17] = system: MALME-3M melanoma
[18] = system: LOX IMVI melanoma
[19] = system: HCC-2998 colon

SMILES | TGI [1] [µM] | TGI [2] [µM] | TGI [3] [µM] | TGI [4] [µM] | TGI [5] [µM] | TGI [6] [µM] | TGI [7] [µM] | TGI [8] [µM] | TGI [9] [µM] | TGI [10] [µM] | TGI [11] [µM] | TGI [12] [µM] | TGI [13] [µM] | TGI [14] [µM] | TGI [15] [µM] | TGI [16] [µM] | TGI [17] [µM] | TGI [18] [µM] | TGI [19] [µM]
O=C1OCCC[C@H]2O[C@@H](COCc3ccccc3)C[C@@H]12 | > 100 | > 100 | > 100 | > 100 | > 100 | > 100 | > 100 | > 100 | > 100 | > 100 | > 100 | > 100 | > 100 | > 100 | > 100 | > 100 |  |  | 
COC(=O)C(Cc1nc2ccccc2[nH]c1=O)C(=O)C(=O)Nc1ccc(F)cc1 (stereo not drawn) |  |  | > 100 | > 100 | > 100 | > 100 |  |  | > 100 |  |  | > 100 | > 100 |  |  | > 100 | 79.5 | > 100 | > 100
CCSc1nnc(-c2ccccc2)nc1Cc1ccc(OC)cc1 |  |  |  | > 100 | > 100 | > 100 |  | > 100 | > 100 |  |  | > 100 | > 100 |  |  | > 100 | > 100 | > 100 | > 100
Cc1ccc(/C=C2\NC(=S)N(CN3CCCCC3)C2=O)cc1 | > 100 |  | > 100 | > 100 | > 100 | > 100 | > 100 | > 100 | > 100 | > 100 | > 100 | > 100 | > 100 | > 100 | > 100 | 72.7 | > 100 | > 100 | 
Cc1ccc(S(=O)(=O)N/N=C2\CC(C)OC3=C2CCCCCC3)cc1 (stereo not drawn) | 34.6 | > 100 | 31.9 | 41.6 | 31.2 | 55.9 | 38.9 |  | 36.2 | 39.4 | 47 | 44.1 | 34.4 | 44.7 | 37.8 | 34.9 | 39.5 | 33.7 | 
Cc1ccc2nc3c(C)cc(=O)cc-3sc2c1 |  |  | 29 | 52.8 | 83.9 | 38.9 |  | > 100 | 42.4 |  |  | > 100 | 54.6 |  | 61 | > 100 | 81.1 |  | 70.9
c1ccc2c3nnc(c2c1)SCCCSc1nnc(c2ccccc12)SCCCS3 | > 100 | > 100 | 72.2 | > 100 | > 100 | > 100 | > 100 | > 100 | > 100 | 48.6 |  | > 100 | > 100 | 86.4 | > 100 | > 100 | 72.1 | > 100 | > 100
COC(=O)/C(=N/NC(C)(C)C)C(C(=O)OC)C(=O)C(=O)Nc1nc2ccc([N+](=O)[O-])cc2s1 (stereo not drawn) |  |  | > 100 | > 100 | > 100 | > 100 |  | > 100 | > 100 |  |  | > 100 | > 100 |  | > 100 | > 100 | > 100 | > 100 | > 100
N#Cc1cn(-c2c3ccccc3nc3ccccc23)c(=O)[nH]c1=O |  |  |  |  | 25 | 22.6 |  | 71 | 28.5 |  |  | 90.7 | 24 |  | 32.9 | 28.5 | 24.3 | 21.2 | 
Cc1c(N=Nc2ccc(Cl)cc2)c(C)n(C2OC(CO)C(O)C(O)C2O)c(=S)c1C#N (stereo not drawn) | 42.7 | > 100 | 21.8 | 74.3 | 57.9 | 42.3 | 68.7 | 36.4 | 36.5 | 36.1 | 83 | > 100 | > 100 | 47.1 | > 100 | > 100 | 46.3 | 33.3 | 58.7
CCn1c(O)c(C=Nc2ccccc2)s/c1=N/Nc1nc(-c2ccc(O)c(O)c2)cs1 |  |  | > 100 | > 100 | > 100 | 92.2 | > 100 | > 100 | > 100 | > 100 | > 100 | > 100 | > 100 | > 100 | > 100 | > 100 | > 100 | > 100 | 
Nc1nc2ncn(CC(O)COC(=O)c3ccccc3)c2c(=O)[nH]1 (stereo not drawn) |  |  | > 100 | > 100 | > 100 |  |  | > 100 | > 100 |  |  |  | > 100 |  | > 100 | > 100 | > 100 | > 100 | 
COc1ccc2nc3c([N+](=O)[O-])ccc(NCCN(C)C)c3c(NCCN(C)C)c2c1 | 3.01 | > 10 | 3.28 | 3.04 |  | 0.732 | 2.02 |  | > 10 | 2.67 |  |  | 4.26 |  |  | 4.51 | 7.69 | 3.11 | 2.25
CCOC(=O)CC(=O)CSc1c(-c2ccccc2)c(=O)n(-c2ccccc2)c(=S)n1-c1ccccc1 | > 100 | > 100 |  | > 100 | > 100 | > 100 | > 100 | > 100 | > 100 | > 100 | > 100 | > 100 | > 100 | > 100 | > 100 | > 100 | > 100 | > 100 | > 100
CCC(C)[C@@H]1NC(=O)[C@@H]2CCCN2C(=O)C(CC(O)CO)OC(=O)CCNC(=O)[C@H](C)N(C)C(=O)[C@H](C(C)C)N(C)C1=O (stereo partly drawn) (cyclo([Ile(3ξ)][NMeV][NMeA][βAla][X22]P)) |  |  | > 100 | > 100 | > 100 | > 100 |  | > 100 | > 100 |  |  | > 100 | > 100 |  | > 100 | > 100 | > 100 | > 100 | 
